Assay results published in ChEMBL document CHEMBL3425504, “Lead optimization of spiropyrazolopyridones: a new and potent class of dengue virus inhibitors” (ACS Med Chem Lett, 2015).
Values after ≈ are worked out from the molar mass of the structure shown. Active and inactive are the calls of the source. The calls are words filed in the database; no cut-off is given here.

Columns and labels:
dengue virus type 2 [1] = assay: Antiviral activity against dengue virus 2 infected in BHK21 cells incubated for 48 hrs by CFI assay; type: functional, organism-based; settings: BHK-21, 48 h
[2] = Cytotoxicity against human HepG2 cells incubated for 96 hrs by CCK8 assay; type: cell-based
[3] = Lipophilicity, log P of the compound; type: physicochemical; settings: octanol/water
[4] = Hepatic extraction ratio in mouse liver microsomes; type: ADME; settings: read-out: ERH
[5] = Half life in mouse liver microsomes; type: ADME
[6] = Solubility in pH 6.8 buffer
dengue virus type 2 [7] = assay: Antiviral activity against dengue virus 2 infected in human A549 cells incubated for 48 hrs by viral titer reduction assay; type: functional, organism-based; settings: A549, 48 h
[8] = Cmax in Wistar rat at 25 mg/kg, po after 0.17 to 24 hrs by LC-MS/MS method; type: ADME, organism-based; set-up: dose 25 mg/kg, route oral; settings: in vivo
[9] = Tmax in Wistar rat at 25 mg/kg, po after 0.17 to 24 hrs by LC-MS/MS method; type: ADME, organism-based; set-up: dose 25 mg/kg, route oral; settings: in vivo
[10] = AUC (0 to 24 hrs) in Wistar rat at 25 mg/kg, po after 0.17 to 24 hrs by LC-MS/MS method; type: ADME, organism-based; set-up: time < 24 hr, dose 25 mg/kg, route oral; settings: plasma
[11] = Absolute oral bioavailability in Wistar rat at 25 mg/kg after 0.17 to 24 hrs by LC-MS/MS method; type: ADME, organism-based; settings: in vivo
[12] = Plasma clearance in Wistar rat at 5 mg/kg, iv after 0.17 to 24 hrs by LC-MS/MS method
[13] = Terminal half-life in Wistar rat at 5 mg/kg, iv after 0.17 to 24 hrs by LC-MS/MS method; settings: in vivo, read-out: beta t1/2 (converted)
Rattus norvegicus = assay: Volume of distribution at steady state in Wistar rat at 5 mg/kg, iv after 0.17 to 24 hrs by LC-MS/MS method; settings: in vivo
dengue virus type 2 [14] = assay: Antiviral activity against dengue virus 2 TSV01 in AG129 mouse model of dengue viremia assessed as log reduction in virus plaques at 50 mg/kg, po BID for 3 days relative to untreated control; type: functional
dengue virus type 2 [15] = assay: Antiviral activity against dengue virus 2 TSV01 in AG129 mouse model of dengue viremia assessed as log reduction in virus plaques at 100 mg/kg, po QD for 3 days relative to untreated control
dengue virus type 2 [16] = assay: Antiviral activity against dengue virus 2 TSV01 in AG129 mouse model of dengue viremia assessed as log reduction in virus plaques at 25 mg/kg, po BID for 3 days relative to untreated control; type: functional, organism-based; set-up: dose 25 mg/kg

SMILES | EC50 (dengue virus type 2 [1]) | CC50 at 96 h [2] | also measured
O=C1CC2(C(=O)Nc3ccc(Cl)cc32)c2cnn(CCc3ccc(Cl)cc3)c2N1 (racemic) | 7.2 µM | > 10 µM | 
O=C1C[C@]2(C(=O)Nc3ccc(Cl)cc32)c2cnn(Cc3ccc(Cl)cc3)c2N1 | 0.012 µM | > 10 µM | EC50 (dengue virus type 2 [7]): 0.012 µM; logP [3]: 4.9; hepatic extraction ratio [4]: 0.66; half-life [5]: 31 min; Cmax [8]: 780 ng/mL; Tmax [9]: 120 min; AUC(0-t) at 24 h [10]: 9500 ng·h/mL; bioavailability [11]: 33%; solubility [6]: 11 µM (≈ 4.55 µg/mL); clearance [12]: 15.1 mL/min/kg; half-life [13]: 228 min; Vdss (Rattus norvegicus): 4.3 L/kg
O=C1CC2(C(=O)Nc3ccc(Cl)cc32)c2cnn(Cc3ccc(Cl)cc3)c2N1 (racemic) | 0.051 µM |  | 
CN1C(=O)CC2(C(=O)Nc3ccc(Cl)cc32)c2cnn(Cc3ccc(Cl)cc3)c21 (racemic) | 0.42 µM | > 10 µM | 
O=C1C[C@@]2(C(=O)Nc3ccc(Cl)cc32)c2cnn(Cc3ccc(C(F)(F)F)cc3)c2N1 | 3.9 µM | > 10 µM | 
O=C1C[C@]2(C(=O)Nc3ccc(Cl)cc32)c2cnn(Cc3ccc(Cl)cn3)c2N1 | 0.23 µM | 33 µM | EC50 (dengue virus type 2 [7]): 0.042 µM; logP [3]: 2.8; hepatic extraction ratio [4]: 0.71; half-life [5]: 24 min; Cmax [8]: 3860 ng/mL; Tmax [9]: 10.2 min; AUC(0-t) at 24 h [10]: 13800 ng·h/mL; bioavailability [11]: 63%; FC (dengue virus type 2 [14]): 1.9; solubility [6]: 504 µM (≈ 209 µg/mL); clearance [12]: 18.8 mL/min/kg; half-life [13]: 78 min; Vdss (Rattus norvegicus): 3 L/kg; FC (dengue virus type 2 [15]): 1.9
CN1C(=O)[C@@]2(CC(=O)Nc3c2cnn3Cc2ccc(Cl)cc2)c2cc(Cl)ccc21 | 0.772 µM | > 10 µM | 
COc1ccc2c(c1)C1(CC(=O)Nc3c1cnn3Cc1ccc(Cl)cc1)C(=O)N2 (racemic) | 2.3 µM | > 10 µM | 
O=C1Nc2ccc(Cl)cc2C12CCNc1c2cnn1Cc1ccc(Cl)cc1 (racemic) | 4 µM | 8.1 µM | 
O=C1CC2(C(=O)Nc3ccc(Cl)cc32)c2cnn(Cc3ccc(C(F)(F)F)cc3)c2N1 (racemic) | 0.025 µM | > 10 µM | 
O=C1CC2(C(=O)Nc3ccc(Cl)cc32)c2cnn(Cc3ccc(Cl)nc3)c2N1 (racemic) | 32.8 µM | > 10 µM | 
O=C1C[C@@]2(C(=O)Nc3ccc(Cl)cc32)c2cnn(Cc3ccc(Cl)cn3)c2N1 | 18.4 µM | > 10 µM | 
C#C[C@@]1(O)[C@H](O)[C@@H](CO)O[C@H]1n1ccc2c(N)ncnc21 |  |  | inhibition (dengue virus type 2 [16]): Active
CN1C(=O)C2(CC(=O)Nc3c2cnn3Cc2ccc(Cl)cc2)c2cc(Cl)ccc21 (racemic) | 0.011 µM | > 10 µM | 
O=C1CC2(C(=O)Nc3ccc(Cl)cc32)c2cnn(Cc3cccc(Cl)c3)c2N1 (racemic) | 3.9 µM | > 10 µM | 
O=C1CC2(C(=O)Nc3ccc(Cl)cc32)c2cnn(Cc3ncc(Cl)cn3)c2N1 (racemic) | 85.3 µM | > 10 µM | 
O=C1CC2(C(=O)Nc3ccc(C(F)(F)F)cc32)c2cnn(Cc3ccc(Cl)cc3)c2N1 (racemic) | 1.3 µM | > 10 µM | 

More lines, main results first:

EC50 (dengue virus type 2 [1]) | SMILES | CC50 at 96 h [2] | also measured
0.006 µM | CN1C(=O)[C@]2(CC(=O)Nc3c2cnn3Cc2ccc(Cl)cc2)c2cc(Cl)ccc21 | > 10 µM | logP [3]: 4.6; hepatic extraction ratio [4]: 0.91; half-life [5]: 5.8 min; solubility [6]: 161 µM (≈ 68.8 µg/mL)
0.021 µM | O=C1C[C@]2(C(=O)Nc3ccc(Cl)cc32)c2cnn(Cc3ccc(C(F)(F)F)cc3)c2N1 | > 10 µM | logP [3]: 4.1; hepatic extraction ratio [4]: 0.49; half-life [5]: 62 min; solubility [6]: 27 µM (≈ 12.1 µg/mL)
1.1 µM | O=C1CC2(CNc3ccc(Cl)cc32)c2cnn(Cc3ccc(Cl)cc3)c2N1 (racemic) | > 10 µM | 
0.67 µM | O=C1CC2(C(=O)Nc3ccc(Cl)cc32)c2cnn(Cc3ccc(Cl)cn3)c2N1 (racemic) | 33 µM | 
0.05 µM | O=C1CC2(C(=O)Nc3ccc(Br)cc32)c2cnn(Cc3ccc(Cl)cc3)c2N1 (racemic) | > 10 µM | 
22.5 µM | O=C1CC2(C(=O)Nc3ccc(Cl)cc32)c2cnn(CC3CCC(F)(F)CC3)c2N1 (racemic) | > 10 µM | 
1.7 µM | O=C1CC2(C(=O)Nc3ccc(Cl)cc32)c2cnn(Cc3ccccc3Cl)c2N1 (racemic) | > 10 µM | 
32.5 µM | O=C1CC2(C(=O)Nc3ccc(Cl)cc32)c2cnn(-c3ccc(Cl)cc3)c2N1 (racemic) | > 10 µM | 
2.71 µM | O=C1C[C@@]2(C(=O)Nc3ccc(Cl)cc32)c2cnn(Cc3ccc(Cl)cc3)c2N1 |  | 
6.2 µM | COc1ccc(Cn2ncc3c2NC(=O)CC32C(=O)Nc3ccc(Cl)cc32)cc1 (racemic) | > 10 µM | 
